Laboratory results published in patent US11628179B2, “Compounds for treating and preventing extracellular histone mediated pathologies” (priority 2017, dated 2023).

Key:
Solubility in vehicle = type: physicochemical; settings: in water/aqueous
Description: The STX studies described below were carried out inter alia to provide a preliminary understanding of the toxicity and PK profile of β-O-methyl cellobioside sulfate compounds such as mCBS.Na utilised in the present invention.

Sprague Dawley rats = system: Sprague Dawley rats
Description: This study examined acute toxicity from single IV administration of mCBS in rats with doses up to 1000 mg/kg.
The acute toxicity of β-O-methyl cellobioside sulfate (mCBS) was assessed in Sprague Dawley rats following intravenous administration of a single bolus dose. A total of five groups of n=3 adult female rats were treated with 10, 30, 100, 300 and 1000 mg/kg doses of mCBS test item in the form of the sodium salt (mCBS.Na) in this dose range finding study. […] The rats were then observed for 7 days prior to termination without necropsy.

Sprague-Dawley rats = settings: 5575 mg/kg/day of mCBS (free base), continuous IV infusion 7 days
Description: The objective of these studies was to determine the toxicity of the test item, mCBS, when administered by continuous (24 hours/day) intravenous infusion through a surgically implanted catheter for 7 consecutive days to Sprague-Dawley rats.
The test and control item dose formulations of mCBS (in the form of the heptasodium salt mCBS.Na) were administered to groups of rats by continuous (24 hours/day) intravenous infusion for 7 consecutive days as described in the Table 14 below.
Parameters monitored during this study included mortality, clinical observations, body weights and food consumption. In addition, hematology, coagulation and clinical chemistry parameters were evaluated on Day 9. Blood samples were collected from the animals at timepoints relative to the start of the infusion for analysis of test item concentration in plasma. At termination (Day 9), all animals were euthanized and subjected to a gross necropsy examination. Organ weights were measured on selected organs and a selected list of tissues, including gross lesions, were retained and prepared for microscopic evaluation.

Sodium β-O-Methyl Cellobioside Sulfate [mCBS.Na]
Solubility in Vehicle (Solubility in vehicle): ~250 mg/mL in water/aqueous | MTD estimate from potency assessment, sodium salt (Sprague Dawley rats; IV bolus single and 7-day studies, corrected for potency): ~745 mg/kg | maximum tolerated dose (MTD) (Sprague Dawley rats; single IV bolus, female rats, 7 days observation, dose as sodium salt): 1000 mg/kg | mortality (Sprague-Dawley rats): death of one female
